Paper PMC11280343, “Rubus urticifolius Compounds with Antioxidant Activity, and Inhibition Potential against Tyrosinase, Melanin, Hyaluronidase, Elastase, and Collagenase” (Pharmaceuticals, 2024)
Several values for one entry are separate records, joined by “and”; a condition that tells them apart may be missing. Equal values may be shown once. Read-outs that look alike come from different tables or passages of the source. Blank lines part the entries; values can stand above or below the molecule they belong to. Numbered stars: 1 amine (or outer) side, 2 acyl side, 3 side chain; on linkers, the order of the positions; unused ones are H or OH. Bridge positions count the residues as written; N and C are the ends. Square brackets hold non-standard residues; d marks the D form. Peptide text beside a SMILES is read from it. I, II: the chains in the order shown. Actinocin(9to1) = Cc1c2oc3c(C)ccc(C(=O)[*:1])c3nc-2c(C(=O)[*:2])c(N)c1=O; NMeV = CN[C@H](C(=O)O)C(C)C; Sar = CNCC(=O)O

Tests used:
[1] = NR viability assay, HEK001; assay type: cell-based, Homo sapiens; details: human; HEK001, NR assay, 72 h; read-out: Viability CC50
Description: (§1) The HEK001 (Homo sapiens cutaneous keratinocyte, CCL-2404), WS1 (Homo sapiens cutaneous fibroblast, CRL-1502), HMCB (Homo sapiens cutaneous melanoma, CRL-9607), and THP-1 (Homo sapiens peripheral blood monocyte, TIB-202) cell lines used in this study were obtained from the American Type Culture Collection (ATCC, Manassas, VA, USA). Cultivated in a Roswell Park Memorial Institute (RPMI) 1640 medium (RPMI 1640 Merck, Cat. No. R7755, New York, NY, USA) supplemented with 2 mM L-glutamine (≥99% Merck, Cat. No. 56-85-9), 10% fetal bovine serum (FBS Merck, Cat. No. TMS-016, St. Louis, MO, USA), and 10,000 units of penicillin and 10 mg streptomycin/mL (Merck, Cat. No. P4333, St. Louis, MO, USA) in culture flasks, the cells were maintained in an incubator under normoxic conditions (20–21% O2) and a humidified atmosphere (5% CO2 at 37 °C).
(§2) Mother solutions of samples (extracts, fractions, and compounds) were prepared at a concentration of […] using dimethyl sulfoxide (DMSO ≥ 99.9% Merck, Cat. No. 67-68-5, St. Louis, MO, USA) as the solvent. From these mother solutions, dilutions were prepared at concentrations ranging from 100 to 0.20 μg/mL or μM in culture medium containing 0.5% DMSO. Additionally, a negative control group consisting solely of culture medium with 0.5% DMSO was included to assess its potential cytotoxic effect on the cells.
(§3) Cell viability was evaluated using a colorimetric assay in 96-well plates, employing 3-amino-7-dimethylamino-2-methylphenazine hydrochloride salt reagent (NR, Merck, Cat. No. 553-24-2, St. Louis, MO, USA).
(§4) HEK001, WS1, HMCB, and THP-1 cell lines were cultured in 96-well plates at 37 °C with 5% CO2 until > 90% confluency was achieved (1 × 10^6 cells/well). Subsequently, the cultures were treated with sample dilutions (100–0.20 μg/mL or μM) for 72 h at 37 °C with 5% CO2 in phenol red-free RPMI. The supernatant was then discarded and the cells were washed with phosphate-buffered saline (PBS) before being incubated with […] NR (50 μg/mL; 173 μM) for 3 h at 37 °C with 5% CO2. NR labelling was performed after DMSO treatment. After incubation, the labelled sample dilutions were rapidly washed with a fixative solution composed of 1% calcium chloride (CaCl2 Merck, Cat. No. 10043-52-4, St. Louis, MO, USA) and 0.5% formaldehyde solution (≥36.0% in H2O Merck, Cat. No. 50-00-0, St. Louis, MO, USA), then diluted with 100 μL of the NR extraction solution. Finally, the plates were read at 540 nm using a microplate reader (Anthos 2020, version 2.0.5, Biochrom Ltd., Cambridge, UK).

[2] = NR viability assay, THP-1; assay type: cell-based, Homo sapiens; details: human, THP-1, NR assay, 72 h; read-out: Viability CC50
Description: as §1, §2, §3, §4

[3] = NR viability assay, WS1; assay type: cell-based, Homo sapiens; details: human; WS1, NR assay, 72 h; read-out: Viability CC50
Description: as §1, §2, §3, §4

[4] = NR viability assay, HMCB; assay type: cell-based, Homo sapiens; details: human; HMCB, NR assay, 72 h; read-out: Viability CC50
Description: as §1, §2, §3, §4

[5] = tested on: HEK001, WS1, HMCB, and THP-1 cell lines; experiment: Viability assay, positive control value of the method (cell line not stated); assay type: cell-based; details: Homo sapiens
Description: as §3, §4

[6] = tested on: Nrf2; experiment: Nrf2 activation assay, THP-1; assay type: cell-based; details: Homo sapiens, THP-1, 72 h; read-out: Activation of Nrf2 production EC50
Description: (§5) To determine the antioxidant response of the samples (at the same concentration as in the viability assay), Nrf2 activation assay was used, following the protocol carried out by Apaza Ticona et al.. Cells were cultured in 96-well plates (1 × 10^6 cells/well). […] Absorbance was measured at 540 nm using a microplate reader.

[7] = tested on: Nrf2; experiment: Nrf2 activation assay, HEK001; assay type: cell-based; details: Homo sapiens, HEK001, 72 h; read-out: Activation of Nrf2 production EC50
Description: as §5

[8] = tested on: Nrf2; experiment: Nrf2 activation assay, positive control value of the method (cell line not stated); assay type: cell-based; details: Homo sapiens
Description: as §5

[9] = tested on: Nrf2; experiment: Nrf2 activation assay, HMCB; assay type: cell-based; details: Homo sapiens, 72 h, read-out: Activation of Nrf2 production EC50
Description: as §5

[10] = tested on: Nrf2; experiment: Nrf2 activation assay, WS1; assay type: cell-based; details: Homo sapiens; WS1, 72 h; read-out: Activation of Nrf2 production EC50
Description: as §5

[11] = tested on: NF-κB; experiment: NF-κB inhibition assay (LPS-stimulated), THP-1; assay type: cell-based; details: Homo sapiens, THP-1, 72 h, read-out: NF-κB Inhibition at 72 h IC50 ± SEM
Description: as §5, with “anti-inflammatory activity” for “antioxidant response”, “NF-κB inhibition” for “Nrf2 activation”, “450” for “540”

[12] = tested on: NF-κB; experiment: NF-κB inhibition assay (LPS-stimulated), WS1; assay type: cell-based; details: Homo sapiens, 72 h, read-out: NF-κB Inhibition at 72 h IC50 ± SEM
Description: as §5, with “anti-inflammatory activity” for “antioxidant response”, “NF-κB inhibition” for “Nrf2 activation”, “450” for “540”

[13] = tested on: NF-κB; experiment: NF-κB inhibition assay (LPS-stimulated), HEK001; assay type: cell-based; details: Homo sapiens, HEK001, 72 h, read-out: NF-κB Inhibition at 72 h IC50 ± SEM
Description: as §5, with “anti-inflammatory activity” for “antioxidant response”, “NF-κB inhibition” for “Nrf2 activation”, “450” for “540”

[14] = tested on: NF-κB; experiment: NF-κB inhibition assay (LPS-stimulated), HMCB; assay type: cell-based; details: Homo sapiens, 72 h, read-out: NF-κB Inhibition at 72 h IC50 ± SEM
Description: as §5, with “anti-inflammatory activity” for “antioxidant response”, “NF-κB inhibition” for “Nrf2 activation”, “450” for “540”

[15] = tested on: NF-κB; experiment: NF-κB inhibition assay, positive control value of the method (cell line not stated); assay type: cell-based; details: Homo sapiens
Description: as §5, with “anti-inflammatory activity” for “antioxidant response”, “NF-κB inhibition” for “Nrf2 activation”, “450” for “540”

[16] = tested on: collagenase; experiment: Collagenase inhibitory assay; assay type: biochemical
Description: A fixed weight of 1 mg of azo dye-impregnated collagen was measured in the test tubes. Subsequently, 800 μL of 0.1 M Tris-HCl (pH 7) and 100 μL of the samples at the same concentrations used as in the viability assay were added to each test tube. Next, 100 μL of collagenase (200 units/mL) was immediately mixed into the mixture and the tubes were incubated at 43 °C for 1 h. After incubation, the test tubes were centrifuged at 3000 rpm for 10 min. The supernatant from each tube was transferred into 96-well plates and the absorbance of each supernatant was measured at 550 nm using a microplate reader.

[17] = target: T1, elastase from porcine pancreas (Sus scrofa, UniProt P00772); experiment: Elastase-inhibitory effect assay; assay type: biochemical
T1 construct: elastase from porcine pancreas (7.5 units/mL); from tissue; host or cells: porcine pancreas
T1 sequence (P00772 27-266): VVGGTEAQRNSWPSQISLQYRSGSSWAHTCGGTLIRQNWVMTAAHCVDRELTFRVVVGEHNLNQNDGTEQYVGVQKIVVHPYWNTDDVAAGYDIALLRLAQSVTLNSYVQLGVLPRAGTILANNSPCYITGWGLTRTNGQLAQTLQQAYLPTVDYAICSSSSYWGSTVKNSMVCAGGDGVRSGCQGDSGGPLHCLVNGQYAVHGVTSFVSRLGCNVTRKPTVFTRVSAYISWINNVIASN
Description: The elastase-inhibitory effect was evaluated, implementing the protocol adapted from Tu and Tawata.
A mixture containing N-succinyl-Ala-Ala-Ala-p-nitroanilide (AAAPVN, Merck, Cat. No. 52299-14-6, St. Louis, MO, USA) elastase substrate in 0.1232 M Tris-HCl buffer solution (pH 8) was prepared to achieve a concentration of 1.015 mM. This elastase substrate was combined with 10 μL of the test samples at the same concentrations used as in the viability assay in 96-well plates and pre-incubated at room temperature (25 ± 5 °C) for 10 min. Subsequently, the reaction was initiated by adding 10 μL of elastase from porcine pancreas (7.5 units/mL) in Tris buffer solution to the pre-incubated mixtures. Absorbance was then measured at 410 nm using a microplate reader.

[18] = tested on: melanin production in HMCB cells; experiment: Melanin content assay; assay type: cell-based; details: Homo sapiens; HMCB cells, 12 h; read-out: Inhibitory activity of melanin production IC50
Description: as §5, with “anti-melanogenic activity” for “antioxidant response”, “melanin inhibition” for “Nrf2 activation”, “HMCB cells” for “Cells”, “405” for “540”

[19] = target: T2, hyaluronidase (Bos taurus, UniProt Q2YDK3); details: cited from earlier work; for Inhibition of active hyaluronidase: 2 mM
T2 sequence (Q2YDK3 36-553): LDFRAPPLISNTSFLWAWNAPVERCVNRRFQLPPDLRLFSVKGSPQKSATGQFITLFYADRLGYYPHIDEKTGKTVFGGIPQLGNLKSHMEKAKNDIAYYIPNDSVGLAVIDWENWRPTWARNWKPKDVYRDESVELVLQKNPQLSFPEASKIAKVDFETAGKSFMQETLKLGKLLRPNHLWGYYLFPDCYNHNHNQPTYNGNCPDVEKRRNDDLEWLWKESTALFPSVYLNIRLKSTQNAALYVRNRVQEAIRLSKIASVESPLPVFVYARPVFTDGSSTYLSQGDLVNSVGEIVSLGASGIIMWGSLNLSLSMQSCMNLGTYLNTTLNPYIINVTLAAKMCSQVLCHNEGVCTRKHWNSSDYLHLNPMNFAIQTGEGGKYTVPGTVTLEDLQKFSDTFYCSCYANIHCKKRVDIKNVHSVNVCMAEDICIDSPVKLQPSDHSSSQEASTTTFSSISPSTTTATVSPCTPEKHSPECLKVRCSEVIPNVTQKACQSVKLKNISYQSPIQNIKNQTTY

[20] = equivalent value for the compounds
[21] = value for the extracts and fractions
[22] = inhibition percentage 'at an IC50', concentration not otherwise stated

Structure (SMILES): Cc1c2oc3c(C)ccc(C(=O)N[C@@H]4C(=O)N[C@H](C(C)C)C(=O)N5CCC[C@H]5C(=O)N(C)CC(=O)N(C)[C@@H](C(C)C)C(=O)O[C@@H]4C)c3nc-2c(C(=O)N[C@@H]2C(=O)N[C@H](C(C)C)C(=O)N3CCC[C@H]3C(=O)N(C)CC(=O)N(C)[C@@H](C(C)C)C(=O)O[C@@H]2C)c(N)c1=O [ACTD, Actinomycin D, reference compound] (I: T[dV]P[Sar][NMeV] / II: T[dV]P[Sar][NMeV]; ester I:1-I:C, II:1-II:C; linker I:N-II:N via Actinocin(9to1))
CC50 at 72 h [1]: 0.0184 µg/mL and 9 nM
CC50 at 72 h [2]: 0.0192 µg/mL and 9 nM
CC50 at 72 h [3]: 0.0173 µg/mL and 8 nM
CC50 at 72 h [4]: 0.0161 µg/mL and 7 nM
IC50 [5, 20]: 0.008 µM
IC50 [5, 21]: 0.01 µg/mL

EC50 [6]: 8e-05 µg/mL and 0.13 nM
EC50 [7]: 5e-05 µg/mL and 0.08 nM
EC50 [8, 20]: 0.00011 µM
EC50 [8, 21]: 0.07 ng/mL
EC50 [9]: 7e-05 µg/mL and 0.1 nM
EC50 [10]: 6e-05 µg/mL and 0.09 nM
Structure (SMILES): COC(=O)[C@]12CCC(C)(C)C[C@H]1[C@H]1C(=O)C=C3[C@@]4(C)C=C(C#N)C(=O)C(C)(C)[C@@H]4CC[C@@]3(C)[C@]1(C)CC2 [CDDO-Me, 2-Cyano-3,12-dioxo-oleana-1,9(11)-dien-28-oic acid methyl ester, reference compound]

Structure (SMILES): CC1=C(O)C(=O)C=C2C1=CC=C1[C@@]2(C)CC[C@@]2(C)[C@@H]3C[C@](C)(C(=O)O)CC[C@]3(C)CC[C@]12C [Celastrol, reference compound]
IC50 [11]: 7.62 µM and 3.35 µg/mL
IC50 [12]: 7.41 µM and 3.29 µg/mL
IC50 [13]: 7.57 µM and 3.33 µg/mL
IC50 [14]: 7.36 µM and 3.27 µg/mL
IC50 [15, 20]: 7.41 µM
IC50 [15, 21]: 3.34 µg/mL

Structure (SMILES): O=C(O[C@@H]1Cc2c(O)cc(O)cc2O[C@@H]1c1cc(O)c(O)c(O)c1)c1cc(O)c(O)c(O)c1 [EGCG, Epigallocatechin gallate, reference compound]
Collagenase Inhibition (%) [16, 22]: 98.81 ± 1.42% and 95.29 ± 2.09%
Anti-Collagenase IC50 ([16]; marked (*)): 114 µg/mL and 114.04 ± 3.07 µg/mL
IC50 ([16]; read-out: Anti-Collagenase IC50): 250 µM and 251 µM
Elastase Inhibition (%) [17, 22]: 98.08 ± 1.74% and 94.44 ± 1.30%
Anti-Elastase IC50 ([17]; marked (*)): 114 µg/mL and 114.38 ± 3.07 µg/mL
IC50 ([17]; read-out: Anti-Elastase IC50): 250 µM

IC50 [18]: 16.4 µM
Structure (SMILES): O=c1cc(CO)occ1O [Kojic acid, reference compound]

Structure (SMILES): COc1ccc(/C=C/C(=O)Nc2ccccc2C(=O)O)cc1OC [Tranilast]
Inhibition of active hyaluronidase ([19]; activator added): 50%
Inhibition of active hyaluronidase [19]: 75%

Structure (SMILES): O=C(O)/C=C/c1ccccc1 [trans-cinnamic acid]
Hyaluronidase inhibition [19]: more than 60%
